# Experimental data reported in patent EP0100569A1, “Spasmolytically active (+)S-enantiomer of secoverine” (DUPHAR INT[…] B.V, priority 1982, dated 1984).
# Where a name gives a salt, the structure may show the parent alone.
# Columns and labels:
# vas deferens of the rat = test: Potentiation of the activity of noradrenaline on the vas deferens in vitro; format: cell-based; settings: for EC (2-fold shift): Rattus norvegicus, negative logarithm of the molar concentration giving a shift to the left of a factor 2 of the noradrenaline curve, read-out: pP2-value (converted); for noradrenaline potentiation: rat vas deferens in vitro
# Excerpt: The test used is a modification of the method as described by Ursillo and Jacobsen, J. Pharmacol. Ex. Ther. 148, (1965), 247.
# The smallest dose which gave a potentiating effect was […], and the potentiating activity was maximum in a quantity of 5 x 10 7M. Higher dosages caused a non--specific decrease of the maximum of the noradrenaline curve.
# For quantifying the effect at the 50% point of the contraction curve (maximum of the control noradrenaline curve = 100%), the shift of the curve obtained with the compound to be tested (expressed as DR) was measured. The pP2-values were calculated in the same manner as the pA2-values mentioned sub b), according to the equation
# ^pP2 ^= -log [secoverine] + log (DR-1).
# cornea of male mice = test: Local anaesthetic activity on the cornea; format: in vivo; settings: concentration of solution giving local anaesthesia in 50% of the animals, 10 per dose, determined graphically
# Method: The anaesthetic activity on the cornea of male mice (18-22 g), 10 animals per dose, was determined according to the method by Weidmann and Petersen, J. Pharmacol. Exp. Ther., 115 (1955), 246. The concentration of the solution of the compounds which gave local anaesthesia in 50% of the animals was determined graphically (EC50--value): […]
# guinea pig ileum = test: Peripheral spasmolytic activity in vitro, 4-point analysis, carbachol as spasmogen; format: cell-based
# Method: These tests were carried out according to the normal 4--point analysis in which the termina-1 guinea pig ileum was used as isolated organ and carbachol was used as a cholinergic spasmogen.
# (§1) The required organs were isolated from killed guinea pigs and the contents and adherent tissues were carefully removed from suitable pieces. The said organs were then suspended in a bath containing 50 ml of Tyrode solution through which oxygen was led. The spasmogenically active substance (carbachol) was added to the bath inter- mittem tly and, after a constant response to the spasmogen had been obtained, the spasmolytic activity of the substances to be tested was measured by adding them to the bath 30 seconds prior to the spasmogen.
# The relative activity of the (+)-enantiomer of secoverine as compared with the racemate was calculated fron, a series of 4-point assays: the (+)-enantiomer of secoverine was 1.86 times as active as the racemate.
# rat jejunum = test: Peripheral spasmolytic activity in vitro, furtrethonium as spasmogen; format: cell-based
# Method: as §1
# Similar results were obtained by using rat jejunum as an organ and using furtrethonium as a spasmogenically active substance: the (+)-enantiomer of secoverine now was 2.10 times as active as the racemate.
# guinea pigs = test: Anticholinergic activity in vivo, carbachol as spasmogen; settings: i.v.
# Method: These tests were carried out according to the method by J.M.A. Zwagemakers, Arzneimittelforschung, 30 (II), (1980), 1517-1526 in which carbachol was used as a spasmogenically active substance. After a constant response to the spasmogen had been obtained, the compound to be tested was administered intravenously (i.v.) to guinea pigs 3 minutes prior to the next quantity of spasmogenically active substance. The activity of the compounds was determined for 52 minutes. Contractions obtained after preceding administration of the substance to be tested were expressed as percentages of the average of two control values and were plotted graphically. The average percentage of inhibition during the period of 52 minutes was calculated from the area under the curve, and the maximum inhibition and the duration of the spasmolytic activity were estimated by means of the time-contraction curve. The spasmolytic activity is considered to be terminated when two successive contractions show less than 20% inhibition.
Structure (SMILES),EC (2-fold shift) (vas deferens of the rat) [µM],noradrenaline potentiation (vas deferens of the rat),EC50-value (% w/vol) (cornea of male mice),"relative activity as compared with the racemate (guinea pig ileum; guinea pig ileum, carbachol, series of 4-point assays) [times]",anticholinergic spasmolytic activity in peripheral organs relative to the racemate (guinea pig ileum; summary statement),relative activity as compared with the racemate (rat jejunum) [times],activity in vivo relative to the racemate (guinea pigs)
CCN(CCCC(=O)C1CCCCC1)C(C)Cc1ccc(OC)cc1 (racemic) [racemate],0.309,significant noradrenaline potentiation,0.13,,,,
"CCN(CCCC(=O)C1CCCCC1)[C@@H](C)Cc1ccc(OC)cc1 [(+)-enantiomer of secoverine, (+)S-1-cyclohexyl-4-[ethyl(p-methoxy-α-methylphenethyl)--amino]-l-butanone hydrochloride]",0.263,significant noradrenaline potentiation,0.20,1.86,approximately twice as strong,2.10,about twice as active
CCN(CCCC(=O)C1CCCCC1)[C@H](C)Cc1ccc(OC)cc1 [(-)-enantiomer of secoverine],0.17,significant noradrenaline potentiation,0.08,,,,
